Patent publication US20090326003A1, “PYRAZOLO (3, 4-B) PYRIDINE DERIVATIVES AS PDE4 INHIBITORS” (priority 2006, published 2009)

What was measured:
[1] = test system: atopic dermatitis patients; conditions: 0.5% ointment, twice daily topical application; cited from earlier work
[2] = test system: TNF-α production in human PBMC (peripheral blood mononuclear cells); assay: Inhibition of TNF-alpha production in human PBMC (MSD technology); assay type: cell-based; conditions: inhibition of LPS-stimulated TNF-α production in human PBMC; measured and/or mean; read-out: PBMC pIC50 (MSD assay) (converted)
Experimental: A 96-well plate (96 MicroWell™ Plates Nunclon™Δ-High Flange Design, Fisher Scientific UK, Bishop Meadow Road, Loughborough LE 11 5 RG, Leicestershire, UK) is prepared by initially adding to column 1 ca. 10 mM of test compound dissolved in DMSO. […] The compound is further diluted with DMSO into columns 2 to 9 by 8 successive 3fold dilutions using the Biomek® FX Laboratory Automation Workstation (Beckman Coulter, Inc., 4300 N. Harbor Boulevard, P.O. Box 3100, Fullerton, Calif. 92834-3100 USA). Column 10 is used as a DMSO negative control (High Signal, 0% response), whilst column 11, which contains 10 mM of the PDE4 inhibitor roflumilast, is used as a positive control (Low Signal, 100% response). About 1 μl (about 1 ul) of compound is transferred to the compound plate using the Biomek® FX.
PBMC cells (peripheral blood mononuclear cells) are prepared from heparinised human blood (using 1% v/v Heparin Sodium 10001 U/ml Endotoxin Free, Leo Laboratories Ltd., Cashel Road, Dublin 12. Ireland, Cat No: PL0043/0149) from normal volunteers using the Accuspin™ System-Histopaque®-1077 essentially (Sigma-Aldrich Company Ltd., The Old Brickyard New Rd, Gillingham Dorset SP8 4XT). About 20 ml of blood is overlaid onto 15 ml Histopaque® in Accuspin™ tubes. The tube is then centrifuged at about 800 g for ca. 20 minutes. The cells are collected from the interface, washed by centrifugation (ca. 1300 g, ca. 10 minutes) and resuspended in RPMI1640 medium (Low endotoxin RPMI1640 medium, Cat No: 31870-025, Invitrogen Corporation Invitrogen Ltd, 3 Fountain Drive, Inchinnan Business Park, Paisley PA4 9RF, UK) containing 10% foetal calf serum, 1% L-glutamine (Invitrogen Corporation, Cat No: 25030024) and 1% penicillin/streptomycin (Invitrogen Corporation, Cat No: 15140-122). Viable cells are counted by trypan blue staining and diluted to 1×10^6 viable cells/ml. About 50 μl (about 50 ul) of diluted cells and about 75 μl (about 75 ul) of LPS (ca. 1 ng/ml final; Sigma Cat No: L-6386) are added to the compound plate, which is then incubated at 37° C., 5% CO2, for 20 hours.
The supernatant is removed and the concentrations of TNF-α are determined by electrochemiluminescence assay using the Meso Scale Discovery (MSD) technology (Meso Scale Discovery, 9238 Gaither Road, Gaithersburg, Md. 20877, USA). See the “TNF-α (TNF-alpha) MSD Assay” described below for typical details.
Using the Biomek FX, 25 μl (25 ul) of MSD Human Serum Cytokine Assay Diluent (Meso Scale Discovery, 9238 Gaither Road, Gaithersburg, Md. 20877) is added to a 96-well High-Bind MSD plate pre-coated with anti-hTNF alpha capture antibody (MA6000) and then incubated for 24 hours at 4° C. to prevent non-specific binding. […]
For the PBMC assay, about 20 μl (ul) of diluted sulfo-TAG antibody (ca. 1 μg/ml final) is added to each well, and the plates/wells are shaken at room temperature for 2 hours. Finally, about 90 μl (ul) of MSD Read Buffer P (diluted to 2.5 times with distilled water) is added and the plates are read on a MSD Sector 6000.
Data analysis is performed with ActivityBase/XC50 module (ID Business Solutions Ltd., 2 Occam Court, Surrey Research Park, Guildford, Surrey, GU2 7QB UK). Data are normalized and expressed as % inhibition using the formula 100*((U-C1)/(C2-C1)) where U is the unknown value, C1 is the average of the high signal (0%) control wells (column 10), and C2 is the average of the low signal (100%) control wells (column 11). […]

[3] = target: T1, PDE4B (human recombinant) (Homo sapiens, UniProt Q07343); assay: PDE4B inhibition, fluorescence polarisation (FP) and/or SPA assay; assay type: biochemical; conditions: n=1 or average of 2 or more readings, accuracy ±about 0.5 log unit, read-out: PDE4B pIC50 (generally in FP assay) (±about 0.5) (converted)
T1 construct: made in house
Source text: Human recombinant PDE4B, in particular the 2B splice variant thereof (HSPDE4B2B), is disclosed in WO 94/20079 and also M. M. McLaughlin et al., “A low Km, rolipram-sensitive, cAMP-specific phosphodiesterase from human brain: cloning and expression of cDNA, biochemical characterisation of recombinant protein, and tissue distribution of mRNA”, J. Biol. Chem., 1993, 268, 6470-6476. For example, in Example 1 of WO 94/20079, human recombinant PDE4B is described as being expressed in the PDE-deficient yeast Saccharomyces cerevisiae strain GL62, e.g. after induction by addition of 150 uM CuSO4, and 100,000×g supernatant fractions of yeast cell lysates are described for use in the harvesting of PDE4B enzyme.
The ability of compounds to inhibit catalytic activity at PDE4B or 4D (human recombinant), PDE3 (from bovine aorta), PDE5 (human recombinant) or PDE6 (from bovine retina) can optionally be determined by Scintillation Proximity Assay (SPA) in a 96-well format.
Test compounds (as a solution in DMSO, preferably about 2 microliter (ul) volume of DMSO solution) are preincubated at ambient temperature (room temperature, e.g. 19-23° C.) in Wallac Isoplates (code 1450-514) with PDE enzyme in 50 mM Tris-HCl buffer pH 7.5, 8.3 mM MgCl2, 1.7 mM EGTA, 0.05% (w/v) bovine serum albumin for 10-30 minutes (usually 30 minutes). The enzyme concentration is adjusted so that no more than 20% hydrolysis of the substrate defined below occurs in control wells without compound, during the incubation. For the PDE3, PDE4B and PDE4D assays, [5′,8-3H]Adenosine 3′,5′-cyclic phosphate (Amersham Pharmacia Biotech, code TRK.559; or Amersham Biosciences UK Ltd, Pollards Wood, Chalfont St Giles, Buckinghamshire HP8 4SP, UK) is added to give 0.05 uCi per well and about 10 nM final concentration. For the PDE5 and PDE6 assays, [8-^3H]Guanosine 3′,5′-cyclic phosphate (Amersham Pharmacia Biotech, code TRK.392) is added to give 0.05 uCi per well and about 36 nM final concentration. Plates containing assay mixture, preferably approx. 100 ul volume of assay mixture, are mixed on an orbital shaker for 5 minutes and incubated at ambient temperature for 1 hour. Phosphodiesterase SPA beads (Amersham Pharmacia Biotech, code RPNQ 0150) are added (about 1 mg per well) to terminate the assay. Plates are sealed and shaken and allowed to stand at ambient temperature for 35 minutes to 1 hour (preferably 35 minutes) to allow the beads to settle. Bound radioactive product is measured using a WALLAC TRILUX 1450 Microbeta scintillation counter. For inhibition curves, 10 concentrations (e.g. 1.5 nM-30 uM) of each compound are assayed. Curves are analysed using ActivityBase and XLfit (ID Business Solutions Limited, 2 Ocean Court, Surrey Research Park, Guildford, Surrey GU2 7QB, United Kingdom) Results are expressed as pIC50 values.
The ability of compounds to inhibit catalytic activity at PDE4B (human recombinant) or PDE4D (human recombinant) can optionally be determined by IMAP Fluorescence Polarisation (FP) assay (IMAP Explorer kit, available from Molecular Devices Corporation, Sunnydale, Calif., USA; Molecular Devices code: R8062) in 384-well format.
The IMAP FP assay is able to measure PDE activity in an homogenous, non-radioactive assay format. The FP assay uses the ability of immobilised trivalent metal cations, coated onto nanoparticles (tiny beads), to bind the phosphate group of FI-AMP that is produced on the hydrolysis of fluorescein-labelled (FI) cyclic adenosine mono-phosphate (FI-cAMP) to the non-cyclic FI-AMP form. […] Binding of FI-AMP product to the beads (coated with the immobilised trivalent cations) slows the rotation of the bound FI-AMP and leads to an increase in the fluorescence polarisation ratio of parallel to perpendicular light. Inhibition of the PDE reduces/inhibits this signal increase. […]

COPD patients = conditions: cited from earlier work
[4] = test system: atopic dermatitis patients; conditions: 0.15% cream versus vehicle and hydrocortisone 17-butyrate (0.1%) cream; cited from earlier work
[5] = test system: humans with histories of allergic rhinitis; conditions: orally 500 ug once daily for 9 days; intranasal allergen provocation (pollen extracts); cited from earlier work

T1 sequence (Q07343 1-564 isoform Q07343-2): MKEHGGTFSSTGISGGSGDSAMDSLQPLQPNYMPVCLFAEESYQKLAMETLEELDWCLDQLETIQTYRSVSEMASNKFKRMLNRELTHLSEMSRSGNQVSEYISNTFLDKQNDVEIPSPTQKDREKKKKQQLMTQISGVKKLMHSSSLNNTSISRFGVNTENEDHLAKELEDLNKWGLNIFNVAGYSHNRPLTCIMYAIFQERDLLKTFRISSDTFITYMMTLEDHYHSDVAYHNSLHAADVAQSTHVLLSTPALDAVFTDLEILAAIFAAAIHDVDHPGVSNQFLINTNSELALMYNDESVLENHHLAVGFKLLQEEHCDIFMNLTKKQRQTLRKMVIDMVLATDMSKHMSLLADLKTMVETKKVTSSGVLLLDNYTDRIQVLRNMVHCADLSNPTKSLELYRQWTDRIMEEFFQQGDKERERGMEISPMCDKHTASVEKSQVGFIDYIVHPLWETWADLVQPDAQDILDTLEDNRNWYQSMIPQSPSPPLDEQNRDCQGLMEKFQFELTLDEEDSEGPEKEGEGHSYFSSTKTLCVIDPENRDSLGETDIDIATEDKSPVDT

## COc1ccc(C2CNC(=O)NC2)cc1O[C@H]1C[C@@H]2CC[C@H]1C2 [CP80,633]
[1]
  inflammatory parameters in atopic dermatitis patients: reductions of inflammatory parameters

## CCn1ncc2c(NC3CCOCC3)c(CNC(=O)c3ccc(-c4ccc(C(=O)NCc5c(C)nc6c(cnn6CC)c5NC5CCOCC5)cc4)cc3)c(C)nc21 [Example 28, N,N′-bis{[1-ethyl-6-methyl-4-(tetrahydro-2H-pyran-4-ylamino)-1H-pyrazolo[3,4-b]pyridin-5-yl]methyl}-4,4′-biphenyldicarboxamide]
[2]
  IC50: ~0.126 nM
[3]
  IC50: ~0.0251 nM

## COc1ccc([C@]2(C#N)CC[C@@H](C(=O)O)CC2)cc1OC1CCCC1 [cilomilast]
COPD patients; 15 mg orally twice daily
  forced expiratory volume in 1 s (FEV1) in COPD patients: appears to improve
COPD patients; COPD patients
  antiinflammatory effects in COPD patients: appears to have antiinflammatory effects

## Nc1nc2c([nH]1)c(=O)n(CC1CC1)c(=O)n2CC1CC1 [cipamfylline]
[4]
  effectiveness in the treatment of atopic dermatitis patients: significantly more effective than vehicle, but significantly less effective than hydrocortisone 17-butyrate (0.1%) cream

## O=C(Nc1c(Cl)cncc1Cl)c1ccc(OC(F)F)c(OCC2CC2)c1 [roflumilast]
COPD patients; COPD patients, dose not stated
  FEV1 in COPD patients: small improvements
[5]
  rhinal airflow during the treatment period (compared to placebo): effective in improving rhinal airflow
